Results on two compounds are retold here after publication PMC6923863 (BMC Pharmacology & Toxicology, 2019).

pIC50: −log10 of the molar value.

In series [1] the test system is Sprague-Dawley rats. As to the kind of experiment: Thermal tail flick latency in rats with saline or morphine osmotic minipumps (opioid tolerance). The class given is in vivo, rat.
In a further series the target is Ca^2+ Channel L-Type (Rattus norvegicus, UniProt P22002). The class given is binding. As to conditions: only quoted where inhibition > 15%, read-out: Percent Inhibition at 10 μM.
The target of a further series is T1, HCN1 K^+ Channel (Homo sapiens, UniProt O60741).
T1 construct: Eurofins Panlabs Ltd., Taipei, Taiwan 952727
T1 sequence (O60741 1-890): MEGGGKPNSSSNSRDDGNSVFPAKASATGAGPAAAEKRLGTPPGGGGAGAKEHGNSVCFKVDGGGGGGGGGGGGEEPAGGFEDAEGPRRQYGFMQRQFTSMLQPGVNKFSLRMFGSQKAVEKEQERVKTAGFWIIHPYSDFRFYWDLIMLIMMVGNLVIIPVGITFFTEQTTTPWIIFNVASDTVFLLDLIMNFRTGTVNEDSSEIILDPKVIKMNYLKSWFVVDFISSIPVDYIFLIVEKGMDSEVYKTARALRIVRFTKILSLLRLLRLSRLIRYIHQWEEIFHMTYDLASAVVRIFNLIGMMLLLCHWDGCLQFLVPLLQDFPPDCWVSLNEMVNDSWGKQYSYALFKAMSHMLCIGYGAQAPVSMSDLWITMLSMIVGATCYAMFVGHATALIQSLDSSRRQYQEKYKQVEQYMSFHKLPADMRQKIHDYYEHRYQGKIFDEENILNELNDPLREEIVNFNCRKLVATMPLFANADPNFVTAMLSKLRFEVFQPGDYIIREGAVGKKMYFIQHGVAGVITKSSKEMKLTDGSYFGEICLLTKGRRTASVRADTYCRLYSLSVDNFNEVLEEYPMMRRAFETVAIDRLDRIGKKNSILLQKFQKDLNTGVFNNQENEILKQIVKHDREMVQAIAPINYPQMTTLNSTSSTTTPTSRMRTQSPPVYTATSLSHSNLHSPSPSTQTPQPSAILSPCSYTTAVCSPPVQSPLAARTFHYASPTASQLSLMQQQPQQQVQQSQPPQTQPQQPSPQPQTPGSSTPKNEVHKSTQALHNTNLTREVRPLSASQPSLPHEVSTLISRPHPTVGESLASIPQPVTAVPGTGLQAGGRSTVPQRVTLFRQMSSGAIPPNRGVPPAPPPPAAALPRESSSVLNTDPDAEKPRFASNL
The series can be described thus: Molecular target binding profile: patch-clamp functional assay (Eurofins Panlabs 952727). The class given is cell-based. For orientation: The patch-clamp technique gives a direct electrical read-out from membranes.

For series [2], the system named is Sprague-Dawley rats. As to the kind of experiment: Pre-pulse inhibition (PPI) of acoustic startle and behavioural testing. It is filed as in vivo, rat.
Series [3] has as its system Sprague-Dawley rats. As to the kind of experiment: Thermal sensitivity (tail flick latency) testing after bolus injection or infusion. The class given is in vivo, rat. As to conditions: pre-emptive analgesia, hypnotic and sub-hypnotic IV dosing regimens. For orientation: Hot-plate and tail-flick tests time the reaction to a heat stimulus.
The subject of series [4] is Sprague-Dawley rats. As to the kind of experiment: Loss of righting reflex (LORR) following intravenous administration. The class given is in vivo, rat. As to conditions: for LORR duration, mean (SEM): 12 mg/kg IV over 30 s.
The subject of series [5] is Sprague-Dawley rats. The series can be described thus: Behavioural dysfunction scoring in minipump rats. As to conditions: 12 mg/kg IV over 30 s.

Sequence of Ca^2+ Channel L-Type (P22002 whole entry): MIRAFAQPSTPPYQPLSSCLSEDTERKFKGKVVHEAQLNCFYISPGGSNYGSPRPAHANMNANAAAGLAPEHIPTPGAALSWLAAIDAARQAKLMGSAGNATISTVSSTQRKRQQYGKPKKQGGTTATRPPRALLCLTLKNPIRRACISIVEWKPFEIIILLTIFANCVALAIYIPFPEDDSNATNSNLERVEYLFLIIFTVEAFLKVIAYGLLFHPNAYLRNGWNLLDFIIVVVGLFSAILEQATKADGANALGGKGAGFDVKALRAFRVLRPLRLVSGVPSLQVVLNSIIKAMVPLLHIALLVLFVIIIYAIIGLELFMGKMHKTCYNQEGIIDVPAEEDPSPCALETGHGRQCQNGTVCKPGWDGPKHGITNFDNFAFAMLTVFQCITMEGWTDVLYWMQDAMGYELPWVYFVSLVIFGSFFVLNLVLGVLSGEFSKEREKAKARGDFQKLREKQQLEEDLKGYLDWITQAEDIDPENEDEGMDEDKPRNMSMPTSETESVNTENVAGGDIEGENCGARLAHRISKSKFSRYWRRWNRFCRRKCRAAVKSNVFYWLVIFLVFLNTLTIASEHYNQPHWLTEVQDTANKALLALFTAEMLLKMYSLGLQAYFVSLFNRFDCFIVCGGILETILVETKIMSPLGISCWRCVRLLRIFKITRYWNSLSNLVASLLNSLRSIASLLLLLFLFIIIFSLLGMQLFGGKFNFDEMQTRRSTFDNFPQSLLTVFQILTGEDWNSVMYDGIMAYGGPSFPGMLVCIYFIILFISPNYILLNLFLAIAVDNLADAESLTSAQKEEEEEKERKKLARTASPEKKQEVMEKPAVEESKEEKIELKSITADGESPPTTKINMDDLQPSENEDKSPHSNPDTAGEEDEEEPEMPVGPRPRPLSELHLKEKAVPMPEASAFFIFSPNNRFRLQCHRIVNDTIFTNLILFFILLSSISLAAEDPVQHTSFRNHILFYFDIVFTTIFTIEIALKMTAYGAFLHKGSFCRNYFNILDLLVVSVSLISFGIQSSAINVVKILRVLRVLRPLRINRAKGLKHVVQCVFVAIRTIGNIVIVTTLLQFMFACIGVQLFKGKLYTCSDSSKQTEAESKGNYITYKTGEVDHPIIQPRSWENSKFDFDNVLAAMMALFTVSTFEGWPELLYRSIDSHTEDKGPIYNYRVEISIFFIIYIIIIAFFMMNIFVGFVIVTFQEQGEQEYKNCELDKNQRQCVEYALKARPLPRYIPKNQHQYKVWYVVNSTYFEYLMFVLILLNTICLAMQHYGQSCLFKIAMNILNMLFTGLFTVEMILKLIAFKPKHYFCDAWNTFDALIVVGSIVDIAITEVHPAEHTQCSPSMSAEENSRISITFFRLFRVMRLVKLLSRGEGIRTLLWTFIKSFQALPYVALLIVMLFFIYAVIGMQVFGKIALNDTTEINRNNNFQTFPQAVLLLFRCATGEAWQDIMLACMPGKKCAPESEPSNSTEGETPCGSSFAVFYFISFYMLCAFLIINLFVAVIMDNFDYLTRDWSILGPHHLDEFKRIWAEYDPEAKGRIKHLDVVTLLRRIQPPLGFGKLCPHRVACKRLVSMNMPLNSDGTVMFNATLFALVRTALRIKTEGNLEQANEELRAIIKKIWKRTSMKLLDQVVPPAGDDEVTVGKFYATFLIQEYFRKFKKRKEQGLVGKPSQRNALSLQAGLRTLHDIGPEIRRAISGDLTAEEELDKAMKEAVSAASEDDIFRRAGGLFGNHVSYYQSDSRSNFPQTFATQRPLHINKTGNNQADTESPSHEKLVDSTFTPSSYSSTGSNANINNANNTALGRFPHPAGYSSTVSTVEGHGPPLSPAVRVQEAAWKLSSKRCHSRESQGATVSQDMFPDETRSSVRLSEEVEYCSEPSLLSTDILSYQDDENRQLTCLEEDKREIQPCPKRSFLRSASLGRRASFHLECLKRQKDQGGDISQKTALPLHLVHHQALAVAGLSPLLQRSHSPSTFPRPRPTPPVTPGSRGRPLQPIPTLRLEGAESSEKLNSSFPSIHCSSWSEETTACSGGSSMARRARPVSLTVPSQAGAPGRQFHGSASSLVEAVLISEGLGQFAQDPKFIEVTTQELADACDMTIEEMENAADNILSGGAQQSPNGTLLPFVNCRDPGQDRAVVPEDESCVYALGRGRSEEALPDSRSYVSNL

As for `CNC1(c2ccccc2Cl)CCCCC1=O` (stereo not drawn) [Ketamine], in the series on Sprague-Dawley rats [1] (12 mg/kg IV over 30 s, morphine minipump animals, day one), the “Thermal tail flick latency, augmentation of morphine analgesia” value is reported as “augmented morphine mediated analgesia”. In addition, the “Thermal tail flick latency in opioid tolerant rats” value in the series on Sprague-Dawley rats [1] (12 mg/kg IV over 30 s, morphine minipump rats, day six) was “TFL prolongation of similar magnitude to that of saline mini-pump subjects”. In addition, the “Thermal tail flick latency” value with Sprague-Dawley rats [1] (12 mg/kg IV over 30 s, opioid-naïve rats, day one post saline minipump insertion) is recorded as “Prolongation of thermal tail flick”; with Sprague-Dawley rats [1] (12 mg/kg IV over 30 s, saline minipump rats, day six), “prolonged tail flick latency”; in the series with Sprague-Dawley rats [3] it was “prolonged thermal tail flick latency”. Also, the inhibition at 10 µM on Ca^2+ Channel L-Type came to 24%. Besides, the pIC50 on HCN1 K^+ Channel was less than 4.00; at GABAA Receptor (radioligand binding), less than 5.00. In addition, the inhibition at 100 µM at HCN1 K^+ Channel (patch-clamp assay quoted at 100 μM, not 10 μM (top dose employed), read-out: Percent Inhibition) amounted to 15%. For the same compound, the “Pre-pulse inhibition (PPI) effect” value in the series with Sprague-Dawley rats [2] (5 minutes after IV dosing, ketamine 10 mg/kg, KEA-1010 11 mg/kg, KEA-1037 10 mg/kg) is reported as “disrupted the PPI effect”. Moreover, in the series on Sprague-Dawley rats [2] (30 min after drug administration), the “Percent PPI or startle amplitude” value was “No statistically significant differences”. Further, in the series on Sprague-Dawley rats [2] (behavioural testing post dosing, ketamine 10 mg/kg, KEA-1010 11 mg/kg, KEA-1037 10 mg/kg IV), the Ataxia result was “greater ataxia at 23 and 48 min post dosing compared with vehicle”. Moreover, the “LORR duration, mean (SEM)” value is on record as 247.0 (28.4) seconds in the series with Sprague-Dawley rats [4] (rats with morphine minipump (6 mg daily), day 1); 272.5 (12.9) seconds in the series on Sprague-Dawley rats [4] (rats with morphine minipump (6 mg daily), day 6); 189.2 (23.8) seconds with Sprague-Dawley rats [4] (rats with saline minipump, day 1); 277.0 (16.9) seconds in the series with Sprague-Dawley rats [4] (rats with saline minipump, day 6). Moreover, the “Induction of LORR, animals affected” value in the series with Sprague-Dawley rats [4] (12 mg/kg over 30 s, rats with saline or morphine minipumps, days one and six) is “all animals”. The compound further yielded an ED50 in the series on Sprague-Dawley rats [4] (Rattus norvegicus, rats, 30 s bolus intravenous injection) of 9.6 mg/kg. Further, the “Duration of loss of righting, mean (SEM)” value is listed as 418.0 (86.4) seconds with Sprague-Dawley rats [4] (rats, 10 minute hypnotic IV infusion (KEA-1010 total 56 mg/kg; ketamine total 28 mg/kg)) and 491.8 (67.7) seconds with Sprague-Dawley rats [4] (rats, hypnotic IV bolus over 15 s (KEA-1010 11 mg/kg; ketamine 10 mg/kg)). In addition, the “Slope of LORR duration vs. dose curves” value in the series on Sprague-Dawley rats [4] (rats, intravenous injection over 30 s) turned out to be 69.8 s/mg/kg. In addition, the “Percent Inhibition at 10 μM” value with GABAA Receptor (10 μM, only quoted where inhibition > 15%) is reported as “− (Percent Inhibition at 10 μM only quoted where inhibition > 15%)”. Besides, the “Time of gradual return to normal behavioural patterns” value in the series with Sprague-Dawley rats [5] (minipump rats) lay within 40 to 50 min. In the series with Sprague-Dawley rats [5] (minipump rats), the “Time of maximal behavioural dysfunction” value was 5 min. The “Behavioural dysfunction score / behavioural aberration” value in the series with Sprague-Dawley rats [5] (saline or morphine minipump rats, days one and six) is given as “profound behavioural aberration”.

On to `CN1CC[C@]23c4c5ccc(O)c4O[C@H]2[C@@H](O)C=C[C@H]3[C@H]1C5` [morphine], for which, in the series with Sprague-Dawley rats [1] (24 h of continuous morphine treatment via minipump (6 mg daily)), the “Thermal tail flick latency compared with vehicle treated animals” value was “significant antinociception”. In addition, the “Time to development of tolerance to thermal tail flick stimuli” value with Sprague-Dawley rats [1] (continuous subcutaneous pump administration of morphine (6 mg/day) in rats) is 3 to 4 days.

As usually defined, the inhibition is how much of the control response was suppressed. One may read the pIC50 as the negative decadic logarithm of the IC50, by convention in mol/L. A higher pIC50 goes with a low IC50. As usually defined, the ED50 is the dose at which the effect has come halfway, by size or by number of responders.
